The values below come from patent publication US20230364079A1, “COMPOUND AS BRAIN-PERMEABLE BTK OR HER2 INHIBITOR, PREPARATION METHOD THEREFOR, AND USE THEREOF” (CHENGDU HYPERWAY PHARMACEUTICALS CO., LTD., priority 2020, published 2023).

Some results are limits rather than exact numbers.

The target in this assay is BTK wild-type kinase (Homo sapiens (Human), UniProt Q06187). Kind of assay: BTK kinase activity inhibition test in vitro (Caliper EZ Reader). The class given is biochemical. Here is the method: In the tests on the activity of inhibiting BTK and HER2 kinase in vitro in the examples of the present disclosure, powder of the compound was dissolved in 100% DMSO to prepare a 10 mM stock solution and stored at-20° C. in the dark. […] In addition, the compounds were subjected to experiments such as liver microsome metabolic stability, rat PK, rat brain penetration rate, and drug efficacy model in the examples of the present disclosure.
Chain of BTK wild-type kinase (Q06187 whole entry): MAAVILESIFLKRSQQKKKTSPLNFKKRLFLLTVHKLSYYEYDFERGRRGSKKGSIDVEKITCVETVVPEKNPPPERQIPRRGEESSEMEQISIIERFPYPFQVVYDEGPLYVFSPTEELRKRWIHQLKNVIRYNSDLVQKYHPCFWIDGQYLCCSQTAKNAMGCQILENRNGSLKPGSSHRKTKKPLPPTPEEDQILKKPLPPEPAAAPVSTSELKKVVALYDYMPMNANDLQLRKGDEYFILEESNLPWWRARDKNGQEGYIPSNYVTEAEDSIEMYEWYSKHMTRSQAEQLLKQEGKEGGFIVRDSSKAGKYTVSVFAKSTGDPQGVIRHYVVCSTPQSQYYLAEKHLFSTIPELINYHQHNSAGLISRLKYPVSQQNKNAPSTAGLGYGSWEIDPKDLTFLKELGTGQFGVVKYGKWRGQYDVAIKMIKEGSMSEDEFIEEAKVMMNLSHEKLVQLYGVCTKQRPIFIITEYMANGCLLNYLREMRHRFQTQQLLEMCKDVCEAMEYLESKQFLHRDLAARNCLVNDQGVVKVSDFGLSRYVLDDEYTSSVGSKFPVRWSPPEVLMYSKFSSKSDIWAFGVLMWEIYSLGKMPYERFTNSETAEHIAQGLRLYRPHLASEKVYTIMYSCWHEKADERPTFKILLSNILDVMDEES
Compound powders were dissolved in 100% DMSO to make 10 mM stock solutions, which were stored at -20° C. in the dark.
2: Kinase Reaction Process
(1) Preparation of 1 × Kinase buffer.
(5) After centrifugation at 1000 rpm for 30 seconds, the reaction plate was shaken to mix well and incubated at room temperature for 10 min.
(6) A 5/3-fold final concentration of a mixed solution of ATP and Kinase substrate 2 was prepared with 1 × Kinase buffer.
(7) 15 µL of the mixed solution of ATP and substrate with 5/3-fold final concentration was added to start the reaction.
(8) The 384-well plate was centrifuged at 1000 rpm for 30 seconds, shaken to mix well, and incubated at room temperature for 10 min.
(9) 30 µL of a stop solution was added to stop the kinase reaction, and after centrifugation at 1000 rpm for 30 seconds, the plate was shaken to mix well;
(10) The conversion rate was read with Caliper EZ Reader.
where Conversion%_sample indicates the conversion rate reading of the sample; Conversion%_min is the average reading of the negative control wells, representing the conversion rate reading of the wells without enzyme activity; Conversion%_max is the average reading of the ratio of the positive control wells, representing the conversion rate reading of the wells without compound inhibition.
Dose-Response Curve Fitting
With the log value of the concentration as the X-axis, and the percentage inhibition rate as the Y-axis, the dose-effect curve was fitted using the log(inhibitor) vs. response-Variable slope of the analysis software GraphPad Prism 5, so as to determine the IC50 value of each compound on the enzyme activity.
The calculation formula was: […]
As to `Nc1nccn2c(C3CCC(CO)OC3)nc(-c3ccc(Oc4ccc5c(c4F)OCO5)cc3)c12` (stereo not drawn) [Compound 85], the IC50 fell in the range of 100 to 1000 nM. As for `COc1cccc(NC(=O)c2ccc(-c3nc(C4CCC(CO)OC4)n4ccnc(N)c34)cc2)n1` (stereo not drawn) [Compound 58], the figure is over 1000 nM; as for `COc1c(F)cccc1Oc1ccc(-c2nc(C3CCC(CO)OC3)n3ccnc(N)c23)cc1` (stereo not drawn) [Compound 76], 100 to 1000 nM. As for `COc1cccc(Oc2ccc(-c3nc(C4CCC(CO)OC4)n4ccnc(N)c34)c(F)c2)c1F` (stereo not drawn) [Compound 10], the figure is under 5 nM. With `COc1cccc(C(F)(F)c2ccc(-c3nc(C4CCC(CO)OC4)n4ccnc(N)c34)cc2)c1F` (stereo not drawn) [Compound 126] the figure was 5 to 20 nM.

The compound `Nc1nccn2c(C34COC(CO)(C3)C4)nc(-c3ccc(C(=O)Nc4cc(C(F)(F)F)ccn4)cc3)c12` [Compound 136] registered an IC50 of 5 to 20 nM.

Turning to `CC(N)(c1ccccc1)c1ccc(-c2nc(C3CCC(CO)OC3)n3ccnc(N)c23)cc1` (stereo not drawn) [Compound 47], the IC50 lay in the range of 100 to 1000 nM. For the compound `Nc1nccn2c(C3CCC(CO)OC3)nc(-c3cnc(Oc4cccc(Cl)c4)nc3)c12` (stereo not drawn) [Compound 81], the IC50 was over 1000 nM. As for `COc1cccc(Oc2ccc(-c3nc(C45COC(CO)(C4)C5)n4ccnc(N)c34)cc2)c1C#N` [Compound 137], the figure is 5 to 20 nM. The compound `CNC(=O)c1cc(Oc2ccc(-c3nc(C4CCC(CO)OC4)n4ccnc(N)c34)cc2)ccn1` (stereo not drawn) [Compound 107] had an IC50 of 100 to 1000 nM. As for `Nc1nccn2c(C34COC(CO)(C3)C4)nc(-c3ccc(C(=O)Nc4ccccn4)cc3)c12` [Compound 42], the figure is 20 to 100 nM; as for `Nc1nccn2c(C3CCC(CO)OC3)nc(-c3ccc(C(=O)c4ccccc4O)cc3)c12` (stereo not drawn) [Compound 66], 20 to 100 nM. As for `Nc1nccn2c(C3CCC(CO)OC3)nc(-c3ccc(Oc4c(F)c(F)cc(F)c4F)cc3F)c12` (stereo not drawn) [Compound 18], the figure is 20 to 100 nM. With `Nc1nccn2c(C34CCC(CO)(CC3)OC4)nc(-c3ccc(C(F)(F)c4ccc(F)c(Cl)c4)cc3)c12` [Compound 140] the figure was 100 to 1000 nM; with `COc1cccc(Oc2ccc(-c3nn(C4CCC(CO)OC4)c4c(Cl)cnc(N)c34)cc2)c1F` (stereo not drawn) [Compound 52], 5 to 20 nM. In turn, `Nc1ccccc1C(=O)c1ccc(-c2nc(C3CCC(CO)OC3)n3ccnc(N)c23)cc1` (stereo not drawn) [Compound 65] showed an IC50 of 5 to 20 nM.

Compound `Nc1nccn2c(C3CCC(CO)OC3)nc(-c3ccc(C(=O)Nc4ccc(C(F)(F)F)cn4)cc3)c12` (stereo not drawn) [Compound 73] showed an IC50 of 100 to 1000 nM. Regarding `Nc1nccn2c(C34CCC(CO)(CC3)OC4)nc(-c3ccc(Oc4cccc(Cl)c4F)cc3)c12` [Compound 94], the IC50 was 5 to 20 nM. `Nc1nccn2c(C3CCC(CO)OC3)nc(-c3ccc(Nc4ccccc4)cc3)c12` (stereo not drawn) [Compound 48] yielded an IC50 of 20 to 100 nM.

As for `Nc1nccn2c(C3CCC(CO)OC3)nc(-c3ccc(Oc4ccc(C5CC5)cc4F)cc3)c12` (stereo not drawn) [Compound 25], the IC50 was in the range of 20 to 100 nM. In the case of `COc1cccc(C(F)(F)c2ccc(-c3nc(C45CCC(CO)(CC4)OC5)n4ccnc(N)c34)cc2)c1F` [Compound 129], the IC50 lay within 5 to 20 nM. On to `COc1ccccc1C(=O)NCc1ccc(-c2nc(C3CCC(CO)OC3)n3ccnc(N)c23)cc1` (stereo not drawn) [Compound 33], for which the IC50 fell in the range of 20 to 100 nM. As for `Nc1ncc(Cl)n2c(C3CCC(CO)OC3)nc(-c3ccc(C(=O)Nc4ccccn4)cc3)c12` (stereo not drawn) [Compound 3], the figure is 20 to 100 nM; as for `Nc1nccn2c(C34CCC(CO)(CC3)OC4)nc(-c3ccc(C(F)(F)c4cccc(F)c4)cc3)c12` [Compound 142], 100 to 1000 nM; as for `CNC(=O)c1cccc(Oc2ccc(-c3nc(C4CCC(CO)OC4)n4ccnc(N)c34)cc2)c1F` (stereo not drawn) [Compound 28], 20 to 100 nM. As for `Nc1nccn2c(C3CCC(CO)OC3)nc(-c3ccc(C(F)(F)c4cccc(F)c4F)cc3)c12` (stereo not drawn) [Compound 127], the figure is 5 to 20 nM; as for `Nc1ncc(Cl)n2c(C34CCC(CO)(CC3)OC4)nc(-c3ccc(C(=O)Nc4cc(C(F)(F)F)ccn4)cc3)c12` [Compound 128], under 5 nM; as for `COc1cccc(Oc2ccc(-c3nc(C4CCC(CO)OC4)n4ccnc(N)c34)cc2)n1` (stereo not drawn) [Compound 104], 5 to 20 nM.

For the compound `Nc1nccn2c(C3CCC(CO)OC3)nc(-c3ccc(Oc4cccc(OC(F)F)c4F)cc3)c12` (stereo not drawn) [Compound 75], the IC50 was 5 to 20 nM. With `COc1cccc(Oc2ccc(-c3nc(C4CCC(CO)OC4)n4c(C)cnc(N)c34)cc2)c1F` (stereo not drawn) [Compound 134] the figure was 5 to 20 nM. As for `Cc1cccnc1NC(=O)c1ccc(-c2nc(C3CCC(CO)OC3)n3ccnc(N)c23)cc1` (stereo not drawn) [Compound 97], the figure is 100 to 1000 nM; as for `Cc1ccc(Oc2ccc(-c3nc(C4CCC(CO)OC4)n4ccnc(N)c34)cc2)c(F)c1` (stereo not drawn) [Compound 77], 20 to 100 nM.

On to `Nc1nccn2c(C3CC[C@H](CO)OC3)nc(-c3ccc(C(=O)Nc4ccccn4)cc3F)c12` (stereo partly drawn) [Compound 1-A], for which the IC50 fell in the range of 5 to 20 nM. As for `Nc1nccn2c(C34COC(CO)(C3)C4)nc(-c3ccc(C(F)(F)c4ccccc4)cc3)c12` [Compound 138], the figure is 20 to 100 nM. With `COc1cccc(Oc2ccc(-c3nc(C4COC5C(O)COC45)n4ccnc(N)c34)cc2)c1F` (stereo not drawn) [Compound 82] the figure was 20 to 100 nM; with `COc1cccc(Oc2ccc(-c3nc(C45CCC(CO)(CC4)OC5)n4ccnc(N)c34)c(F)c2)c1C#N` [Compound 115], under 5 nM; with `COc1cccc(NC(=O)c2ccc(-c3nc(C4CCC(CO)OC4)n4ccnc(N)c34)cc2)c1F` (stereo not drawn) [Compound 79], over 1000 nM. With `COc1ccccc1Oc1ccc(-c2nc(C3CCC(CO)OC3)n3ccnc(N)c23)cc1` (stereo not drawn) [Compound 88] the figure was 20 to 100 nM. `Nc1cccc(NC(=O)c2ccc(-c3nc(C4CCC(CO)OC4)n4ccnc(N)c34)cc2)n1` (stereo not drawn) [Compound 71]: the IC50 was 20 to 100 nM. As for `Nc1nccn2c(C34COC(CO)(C3)C4)nc(-c3ccc(Oc4cccc(OC(F)(F)F)c4F)cc3F)c12` [Compound 40], the figure is 5 to 20 nM. Consider `C[C@](N)(c1ccc(F)cc1)c1cnc(-c2nc(C3CCC(CO)OC3)n3ccnc(N)c23)nc1` (stereo partly drawn) [Compound 49], for which the IC50 is over 1000 nM. As for `Nc1nccn2c(C3CCC(CO)OC3)nc(-c3ccc(Oc4ccc5c(c4F)OCC5)cc3)c12` (stereo not drawn) [Compound 84], the figure is 20 to 100 nM; as for `Nc1nccn2c(C3CCC(CO)OC3)nc(-c3ccc(C(=O)Nc4cccc(Br)n4)cc3)c12` (stereo not drawn) [Compound 72], 100 to 1000 nM; as for `Nc1nccn2c(C34CCC(CO)(CC3)OC4)nc(-c3ccc(Oc4cccc(OC(F)(F)F)c4F)cc3)c12` [Compound 95], 5 to 20 nM. With `Nc1nccn2c(C3CCC(CO)OC3)nc(-c3ccc(C(=O)Nc4ccc(Cl)cn4)cc3)c12` (stereo not drawn) [Compound 68] the figure was 20 to 100 nM; with `Nc1nccn2c(C3CCC(CO)OC3)nc(-c3ccc(NC(=O)c4ccc(C5CC5)cc4F)cc3)c12` (stereo not drawn) [Compound 46], 100 to 1000 nM; with `COc1cccc(Oc2ccc(-c3nc(C45CCC(CO)(CC4)OC5)n4ccnc(N)c34)cc2)c1C(F)(F)F` [Compound 112], 5 to 20 nM. As for `Nc1nccn2c(C3CCC(CO)OC3)nc(-c3ccc(Oc4cccc(OC5CC5)c4F)cc3)c12` (stereo not drawn) [Compound 15], the figure is 5 to 20 nM. In the case of `COc1cccc(Oc2ccc(-c3nc(C45CCC(CO)(CC4)OC5)n4ccnc(N)c34)cc2)c1F` [Compound 37], the IC50 was under 5 nM.

With `Nc1ncc(Cl)n2c(C3CCC(CO)OC3)nc(-c3ccc(C(=O)Nc4ccccn4)cc3F)c12` (stereo not drawn) [Compound 4], the IC50 lay in the range of 20 to 100 nM. As for `Nc1ncc(Cl)n2c(C34COC(CO)(C3)C4)nc(-c3ccc(C(=O)Nc4ccccn4)cc3F)c12` [Compound 44], the figure is 20 to 100 nM.

Take `NC(=O)c1ccccc1C(=O)c1ccc(-c2nc(C3CCC(CO)OC3)n3ccnc(N)c23)cc1` (stereo not drawn) [Compound 99]: the half-maximal inhibitory concentration (IC50) is over 1000 nM. With `COc1c(F)ccc(Oc2ccc(-c3nc(C4CCC(CO)OC4)n4ccnc(N)c34)cc2)c1F` (stereo not drawn) [Compound 20] the figure was 5 to 20 nM. As for `COc1cccc(Oc2ccc(-c3nc(C45CCC(CO)(CC4)OC5)n4c(Cl)cnc(N)c34)cc2)c1C#N` [Compound 122], the figure is under 5 nM; as for `Nc1nccn2c(C34CCC(CO)(CC3)OC4)nc(-c3ccc(C(F)(F)c4ccccc4)cc3F)c12` [Compound 114], 5 to 20 nM. `Nc1nccn2c(C3CCC(CO)OC3)nc(-c3ccc(Oc4cccnc4F)cc3)c12` (stereo not drawn) [Compound 59]: the IC50 was over 1000 nM. With `COc1cccc(C(=O)c2ccc(-c3nc(C4CCC(CO)OC4)n4ccnc(N)c34)cc2)c1F` (stereo not drawn) [Compound 61] the figure was 5 to 20 nM.

`N#Cc1ccnc(NC(=O)c2ccc(-c3nc(C45COC(CO)(C4)C5)n4ccnc(N)c34)cc2)c1` [Compound 135] registered an IC50 of 5 to 20 nM.

Regarding `CNc1ccccc1C(=O)c1ccc(-c2nc(C3CCC(CO)OC3)n3ccnc(N)c23)cc1` (stereo not drawn) [Compound 67], the IC50 lay in the range of 100 to 1000 nM. As for `Cc1cccc(Oc2ccc(-c3nc(C45CCC(CO)(CC4)OC5)n4ccnc(N)c34)cc2)c1F` [Compound 92], the figure is under 5 nM.
